Assay results from patent publication US20060234934A1, “Composition and Method for Selective Cytostasis” (priority 2005, published 2006).

Assays:
[1] = system: Malignant melanoma A375 cells; experiment: 3[H]-thymidine incorporation in A375 cell cultures; type: cell-based
Experimental: Each fraction was reconstituted in 110 μl of Dulbecco's modified Eagle's medium (DMEM) with fetal calf serum (FCS) 5 vol. %, 100 I.U. penicillin, 100 μg streptomycin and 2 nmole glutamine.
Malignant melanoma A375 cells (obtained from the American Type Culture Collection, Rockville, Md.) were counted in a counter (obtained from Coulter Diagnostics, Hialeah, Fla.), and about 4,000 cells were seeded into each well of a 96 well microtiter plate (obtained from Fisher Scientific, Springfield, N.J.) with 200 I.U. penicillin, 200 µg streptomycin and DMEM containing FCS 5 vol. %, 2 nmole glutamine, and […] HEPES (hydroxyethylpiperazine-ethanesulfonic acid buffer) as needed to give a final well volume of […]. […]
The cell cultures were terminated and harvested with a cell harvester (obtained from Flow Laboratories, McLean, Va., under the designation Titertek®), removing the contents of each microtiter plate well onto glass fiber filter paper. […] The strips were placed in scintillation vials and counted in 2 ml scintillation solution (obtained from Fisher Scientific, Springfield, N.J., under the designation Scintiverse®) using a scintillation counter (Model No. LS 100 C. obtained from Beckman Instruments, Somerset, N.J.) to determine the uptake of ^3[H]-thymidine into newly synthesized DNA.

[2] = system: ALL line MOLT-4 (CRL1582); experiment: 3[H]thymidine uptake in leukemic cell line MOLT-4; type: cell-based, human; settings: 50 nG/mL
Experimental: For example, the ALL line MOLT-4 (now denoted CRL1582 by the ATCC) was used for testing a representative cytostatic peptide for its effect on leukemic cells. The testing method described by Kikuwa, et al (1986), which is hereby incorporated herein by reference. In brief, the cells were maintained as a suspension in RPMI 1640 (Gibco) and 10% FCS, 100 u. penicillin G/mL and 100 micrograms streptomycin/mL with 2 mM L-glutamine.
Representative non-toxic cytostatic peptides were tested in still other cancer cell lines.

serine-glutamine-cysteine-glutamic acid-glutamine-glutamic acid-glycine-glycine-phenalalanine-cysteine-arginine-phenylalanine-leucine-leucine-cysteine-proline-serine-arginine-threonine-serine-aspartic acid-isoleucine-glysine-lysine-leucine-glycine-cysteine-glutamic acid-proline-leucine-tryptophan-lysine-cysteine-cysteine-lysine-arginine-tryptophan-glycine-glycine [peak Q]
less 3[H]-thymidine uptake than controls ([1]; HPLC fraction): about 50%
amount sufficient to arrest the proliferations of at least about 100,000 melanoma cells ([1]; melanoma cells): about 50 ng
less 3[H]thymidine uptake than controls [2]: 90-95%
visual appearance of cells [2]: altered “rounded” visual appearance
